{
  "source": "patent US12397007B2",
  "about": "“Methods of treatment with combinations of cannabidiol and psilocybin” (ECP Pharma, priority 2021, dated 2025)",
  "key": {"[1]": {"test_system": "Iba1+ microglia", "experiment": "Moderate fluid-percussion TBI, immunohistochemical analysis of microglia reactivity", "type": "in vivo, rat", "procedure": "(§1) Another study was conducted in rats to evaluate the synergy of an oral combination of psilocybin and CBD in mitigating TBI-induced pathology in a preclinical model of TBI. In this study, adult rats were exposed to a moderate fluid-percussion pulse over the right parietal cortex.\n(§2) Psilocybin (1.5 mg/kg) and/or CBD (5 mg/kg) in 1 mL of ddH2O (or vehicle/ddH2O alone) was dosed by oral gavage at 1-hour post-injury, and for 1×/day for 6 consecutive days thereafter, resulting in 7 total dosage administrations. Animals receiving psilocybin+CBD were exposed to a traumatic/fearful stimulus (predatory urine) to evaluate anxiety-like behavior. Outcome measurements included sensorimotor (cylinder test), cytoprotection (volumetric analyses of contusion and cortical atrophy), and neuroinflammation (microglia reactivity).\nBoxes demarcate representative cells in which changes could be compared."}, "[2]": {"test_system": "rat blast model of TBI", "experiment": "Rat blast model of TBI, light dark box", "type": "in vivo", "conditions": "CBD 5 mg/kg IP, psilocybin 1.5 mg/kg PO from one hour after injury, 7 total doses; vs vehicle; FIG. 2", "excerpt": "This increased time spent in light was not seen with either CBD or psilocybin when dosed separately."}, "[3]": {"test_system": "adult rats exposed to a moderate fluid-percussion pulse over the right parietal cortex", "experiment": "Moderate fluid-percussion TBI, stereological volumetric analyses of contusion and cortical atrophy", "type": "in vivo, rat", "conditions": "approximately 4 weeks after injury; relative to injured vehicle-control animals; FIG. 5 right panel", "procedure": "as §1, §2"}, "[4]": {"conditions": "preliminary quantitative analyses, FIG. 7"}},
  "data": [
    {"smiles": "C=C(C)[C@@H]1CCC(C)=C[C@H]1c1c(O)cc(CCCCC)cc1O", "note": "[CBD, Cannabidiol]", "values": [
      {"measurement": "reactive microglia morphology, CA1", "setting": "[1]; CBD 5 mg/kg alone vs TBI/Vehicle, FIG. 6 bottom row", "result": "seemed to reduce reactive microglia morphology"},
      {"measurement": "number of Iba1+ cells, dentate gyrus of ipsilateral hippocampus", "setting": "[1]; CBD 5 mg/kg alone vs controls, FIG. 6 middle row", "result": "significantly greater in number in controls compared to CBD group"},
      {"measurement": "Iba1+ cell density, CA1", "setting": "[1]; CBD 5 mg/kg alone vs injured vehicle, FIG. 6 bottom row", "result": "no overt differences"},
      {"measurement": "injury-induced Iba+ microglia changes", "setting": "[1]; CBD 5 mg/kg alone, FIG. 6", "result": "normalization of injury-induced Iba+microglia changes"},
      {"measurement": "density of Iba1+ cells, pericontusional cortex", "setting": "[1]; CBD 5 mg/kg alone, FIG. 6 top row", "result": "reduced density of Iba1+ cells"},
      {"measurement": "activated microglia phenotypes, cortical penumbra", "setting": "[1]; [4]", "result": "significantly decreased"},
      {"measurement": "overall microglia numbers, cortical penumbra", "setting": "[1]; [4]", "result": "reduced overall microglia numbers"},
      {"measurement": "stress, time spent in light in the light dark box", "setting": "[2]", "result": "not seen"},
      {"measurement": "cortical volume atrophy", "setting": "[3]", "result": "trended positively towards normalization"}
    ]}
  ]
}
